Reference: patent US20100273876A1, “ANTIBACTERIAL FORMULATION COMPRISING A DIALKYL SULPHOSUCCINATE AND A CARBANILIDE ANTIBACTERIAL AGENT” (priority 2007, published 2010)

Assays:
Strep. mutans ATCC 25175 [1] = experiment: Biofilm disruption assay on hydroxyapatite discs; assay type: cell-based, Streptococcus mutans; details: Strep. mutans ATCC 25175 biofilm, DOSS 1.0% (w/v), CHX 0.2% (w/v)
Procedure: (§1) This assay was designed to determine quantitatively the relative potency of a test compound to disrupt (effectively kill) biofilms formed by a test organism on hydroxyapatite (HA) discs.
(§2) Biofilms were formed on sterile dense ceramic HA discs 7 mm diameter x 1.8 mm thick (Clarkson Chromatography) by placing the discs in the appropriate liquid media (as described above) inoculated with the test organism (0.5×10^8 cfu/ml). The HA discs were then incubated at 37° C. for ˜48 h in a 5% CO2 atmosphere (for Strep. mutans ATCC 25175) or ˜96 h under anaerobic conditions (for Por. gingivalis 381). Following the incubation period the supernatant was removed from the wells containing the HA discs and the discs were washed×3 with fresh media to ensure all planktonic cells were removed. The HA discs were then transferred to sterile bijoux bottles containing 1 ml of phosphate buffered saline (PBS) plus test compound(s) at the required concentration. After a set time period (usually 2 and/or 5 min), the HA disc was transferred to another sterile bijoux containing 1 ml of fresh growth media. Adherent cells were then harvested by vigorous vortexing for 2 minutes. A sample was then taken, serially diluted 10-fold in fresh growth media and inoculated onto agar plates in triplicate. Untreated HA discs, and HA discs added to PBS containing only the solvents used to dissolve the test compound(s), acted as controls.
(§3) The plates were then incubated as described above and subsequently examined visually for growth. Colonies were counted at an appropriate serial dilution (5-50 individual colonies visible) with the aid of a colony counter. These measurements were then converted to numbers of colony forming units (cfu), using the formula: cfu/ml=number of colonies×serial dilution factor×100 (as only a 10 μl sample was taken).
(§4) These cfu values were then converted into log10 values and plotted graphically against time of sample removal.
(§5) At each time point, samples were assessed in triplicate; the final cfu/ml value was an average (mean) of the three readings.
(§6) Biofilm disruption assays, as described above, were carried out using DOSS as the test compound and chlorhexidine (CHX) as a positive control. For these experiments, the DOSS was tested at 0.5% w/v against Por. gingivalis and 1% w/v against Strep. mutans. The ahlorhexidine was tested at a concentration of 0.2% w/v against both micro-organisms. The DOSS was dissolved in ethanol and the chlorhexidine in distilled water. All the experiments were conducted in triplicate.

Por. gingivalis 381 = experiment: Biofilm disruption assay on hydroxyapatite discs; assay type: cell-based, Porphyromonas gingivalis; details: Por. gingivalis 381 biofilm, DOSS 0.5% (w/v), CHX 0.2% (w/v)
Procedure: as §1, §2, §3, §4, §5, §6

[2] = tested on: Por. gingivalis NCTC 11834; experiment: (S)DDA disc diffusion; assay type: cell-based, Porphyromonas gingivalis; details: for SDDA with TCC: 200 μg DOS salt + 200 μg TCC on one disc; for DDA: 200 μg per disc
Procedure: (§7) The P. gingivalis strains were cultured and maintained on Wilkins-Chalgren Anaerobe Medium (agar and broth) at pH 7.0; all cultures were incubated anaerobically at 37° C. for 5-7 days.
(§8) A sterile paper disc was impregnated with a sample of the test compound in a suitable solvent and 30 minutes allowed for the solvents to evaporate (where possible). The disc was then placed on an agar plate onto which the test micro-organism had been inoculated. The plate was then incubated under the conditions described above, following which it was examined visually for signs of microbial growth. If the test compound had antimicrobial activity, a circular zone of no growth would be obtained around the disc. The diameter of this zone of “inhibition” was measured using a ProtoCOL™ automated zone sizer (Synbiosis, Cambridge, UK). In general, a greater diameter and/or area of the zone of inhibition indicates a greater antimicrobial activity in the relevant test compound, although other factors such as test compound mobility through the agar gel may also influence the result.
(§9) Two test a compounds A and B were placed on a single paper disc and the above described DDA procedure repeated. An increase in diameter of the zone of inhibition, compared to the greater of the zone diameters for the two compounds individually, was taken to indicate potential antimicrobial synergy. In practical terms, an increase of greater than 5 mm could be treated as significant.
(§10) For the (S)DDA experiments; 200 μg of the DOS salts and/or the TCC were loaded onto each disc for Por. gingivalis experiments. For the Strep. mutans experiments, 200 μg of the TCC and 50 μg of DOSS were used on each disc. All the experiments were conducted in triplicate.

Strep. mutans ATCC 25175 [3] = experiment: MBC assay; assay type: cell-based, Streptococcus mutans
Procedure: (§11) The S. mutans was cultured and maintained on Wilkins-Chalgren Anaerobe Medium (agar and broth) at pH 7.0 supplemented with 1 g/L glucose; all cultures were incubated at 37° C. for 48 h in an atmosphere containing 5% CO2. This assay, normally carried out after an MIC assay, determines the rnininiurn concentration of a compound that is lethal to the micro-organism being tested. […] These samples were then individually sub-cultured on antibiotic-free agar medium, under the incubation conditions described above. Following incubation they were examined visually for microbial growth.

[4] = tested on: Por. gingivalis NCTC 11834; experiment: MBC assay; assay type: cell-based, Porphyromonas gingivalis
Procedure: as §11, with “P. gingivalis strains were” for “S. mutans was”, “7.0;” for “7.0 supplemented with 1 g/L glucose;”, “incubated anaerobically” for “incubated”, “5-7 days.” for “48 h in an atmosphere containing 5% CO2.”

P. acnes NCTC 737 [5] = experiment: Minimum bactericidal concentration (MBC) assay; assay type: cell-based, Propionibacterium acnes
Procedure: as §11, with “propionibacteria were” for “S. mutans was”, “6.0;” for “7.0 supplemented with 1 g/L glucose;”, “incubated anaerobically” for “incubated”, “72 hours.” for “48 h in an atmosphere containing 5% CO2.”

P. acnes NCTC 737 [6] = experiment: Disc diffusion / synergy disc diffusion assay ((S)DDA); assay type: cell-based, Propionibacterium acnes; details: for SDDA area increase / SDDA increase: 200 μg DOS salt + 200 μg TCC; for SDDA with TCC: 200 μg DOS salt + 200 μg TCC on one disc; for SDDA increase: vs greater single-compound zone; for DDA + salt: sodium chloride 100 mM; for DDA + lipid: triolein 1% v/v
Procedure: (§12) The propionibacteria were cultured and maintained on Wilkins-Chalgren Anaerobe Medium (agar and broth) at pH 6.0; all cultures were incubated anaerobically at 37° C. for 72 hours.
as §8, §9
Both the DDA and the SDDA test may be carried out using an agar gel supplemented with lipid and/or salt to simulate some of the major components present in human skin and to assess whether these substances might reduce the antimicrobial activity observed for the test compound. Performance under these conditions can provide a more reliable indication of activity on topical application. The supplements used in Examples 1, 11, 12 and 13 below were lipid (either Tween™ 80 at 1% v/v (Example 1) or triolein at 1% v/v (Examples 11, 12 and 13) and sodium chloride (100 mM).

Strep. mutans ATCC 25175 [7] = experiment: (S)DDA disc diffusion; assay type: cell-based, Streptococcus mutans; details: 200 μg per disc
Procedure: (§13) The S. mutans was cultured and maintained on Wilkins-Chalgren Anaerobe Medium (agar and broth) at pH 7.0 supplemented with 1 g/L glucose; all cultures were incubated at 37° C. for 48 h in an atmosphere containing 5% CO2.
as §8, §9, §10

Strep. mutans ATCC 25175 [8] = experiment: MIC assay, liquid medium; assay type: cell-based, Streptococcus mutans
Procedure: as §13
(§14) This is a standard international method for quantitatively assessing the antimicrobial activity of a compound in a liquid medium. The method used a sterile 96-well microtitre plate, capable of holding about 200 μl of liquid per well. The wells contained liquid culture medium and ranges of decreasing concentrations of the relevant test compound in doubling dilutions (eg, 1000, 500, 250, 125 . . . μg/ml, etc. down to 0.49 μg/ml). The culture media were as described above.
(§15) The wells were inoculated with a liquid suspension of freshly grown micro-organism and incubated under the conditions described above. After incubation, the microtitre plate was examined visually (with the aid of a light box) for cloudiness in each well, which would indicate microbial growth. The MIC value was recorded as the lowest concentration of test compound required to inhibit microbial growth, ie, the lowest concentration for which the liquid in the well remained clear.
(§16) The assays included both negative (culture medium with no micro-organisms) and positive (culture medium plus diluting solvent plus micro-organism) controls.

[9] = tested on: Por. gingivalis NCTC 11834; experiment: MIC assay, liquid medium; assay type: cell-based, Porphyromonas gingivalis
Procedure: as §7, §14, §15, §16

P. acnes NCTC 737 [10] = experiment: Minimum inhibitory concentration (MIC) assay, liquid medium; assay type: cell-based, Propionibacterium acnes
Procedure: as §12, §14, §15, §16

[11] = 200 μg of each test compound per disc (Example 2)
[12] = 200 μg per disc, pH 6.0, single replicates

| Compound | SDDA area increase [2] [%] | SDDA increase [2] [mm] | SDDA with TCC [2] [mm] | DDA [2] [mm] | MBC (Strep. mutans ATCC 25175 [3]) [µg/mL] | MIC/MBC ratio (Strep. mutans ATCC 25175 [3]) | MBC [4] [µg/mL] | MIC/MBC ratio [4] | MBC (P. acnes NCTC 737 [5]) [µg/mL] | MIC/MBC ratio (P. acnes NCTC 737 [5]) | SDDA area increase (P. acnes NCTC 737 [6]) [%] | SDDA with TCC (P. acnes NCTC 737 [6]) [mm] | SDDA increase (P. acnes NCTC 737 [6]) [mm] | DDA (P. acnes NCTC 737 [6]; [11]) [mm] | DDA (P. acnes NCTC 737 [6]; [12]) [mm] | DDA + salt (P. acnes NCTC 737 [6]; 200 μg per disc, pH 6.0) [mm] | DDA + lipid (P. acnes NCTC 737 [6]; 200 μg per disc, pH 6.0) [mm] | DDA (Strep. mutans ATCC 25175 [7]) [mm] | MIC (Strep. mutans ATCC 25175 [8]) [µg/mL] | MIC [9] [µg/mL] | further results |
| --- | --- | --- | --- | --- | --- | --- | --- | --- | --- | --- | --- | --- | --- | --- | --- | --- | --- | --- | --- | --- | --- |
| [H]/N=C(\N/C(=N/[H])NCCCCCCNC(=N)NC(=N)Nc1ccc(Cl)cc1)Nc1ccc(Cl)cc1 [CHX, chlorhexidine] |  |  |  |  |  |  |  |  |  |  |  |  |  |  |  |  |  |  |  |  | Viable cell counts (Strep. mutans ATCC 25175 [1]; 0 min): 6.56 log10 cfu/ml; Viable cell counts (Strep. mutans ATCC 25175 [1]; 2 min): 6.12 log10 cfu/ml; Viable cell counts (Strep. mutans ATCC 25175 [1]; 5 min): 5.99 log10 cfu/ml; Viable cell counts (Por. gingivalis 381; 0 min): 7.53 log10 cfu/ml; Viable cell counts (Por. gingivalis 381; 2 min): 6.50 log10 cfu/ml; Viable cell counts (Por. gingivalis 381; 5 min): 6.76 log10 cfu/ml |
| CCCCC(CC)COC(=O)CC(C(=O)OCC(CC)CCCC)S(=O)(=O)[O-].CCCCC(CC)COC(=O)CC(C(=O)OCC(CC)CCCC)S(=O)(=O)[O-].[Ca+2] (stereo not drawn) [DOS calcium salt] | 38.64 | 9.24 | 61.31 | 52.07 | 31.25 | 0.5 | 7.8 | 0.5 | >31.25 | <0.5 | 128.93 | 36.16 | 12.26 | 23.9 | 44.71 | 43.16 | 49.36 | 32.13 | 15.6 | 3.9 | MIC (P. acnes NCTC 737 [10]): 15.6 µg/mL |
| CCCCC(CC)COC(=O)CC(C(=O)OCC(CC)CCCC)S(=O)(=O)[O-].[K+] (stereo not drawn) [DOS potassium salt] | 43.78 | 10.18 | 61.31 | 51.13 | 31.25 | 0.5 | 7.8 | 0.5 | 62.5 | 0.125 | 99.37 | 36.68 | 10.7 | 25.91 | 46.57 | 46.26 | 48.12 | 35.28 | 15.6 | 3.9 | MIC (P. acnes NCTC 737 [10]): 7.8 µg/mL |
